Data reported in article PMC5379745, “Coordinating antigen cytosolic delivery and danger signaling to program potent cross-priming by micelle-based nanovaccine” (Cell Discovery, 2017).

Columns and labels:
TC-1 cells = assay: Vaccination combined with cisplatin chemotherapy, TC-1 tumors; type: in vivo, C57BL/6 mice; conditions: cisplatin 5 mg/kg i.v. three times, vaccine s.c. three times, with high dose tumor re-challenge, n=10
Method: To detect the LN targeting deliver y of pol ypeptide antigens by micelle, C57BL/6 mice were subcutaneousl y injected with 14.6 nmol different formulations of RhB labeled E7 peptide (E7, Pal-E7 and M-E7) at tail base. The DLNs were ex cised and digested into single cell suspension at 24h post-injection, the RhB+ DCs and Macrophages cells wer e detected b y flo w c ytom etr y.
Vaccination combined with cisplatin chemotherapy
C57BL/6 mice were inoculated subcutaneousl y with 5×10^4 TC-1 tumor cells. Two weeks later when the tumor volume reached 100 mm3 (day 0), tumor -bearing mice were treated with cisplatin (5mg/kg bod y weight) intravenousl y for three times at 5 days interval. On the same day of the last chemotherap y, mice were vaccinated subcutaneousl y with micelle vaccine or normal saline (NS) for three times at 7da ys interval. Tumor growth and tumor free rate was monitored twice per week.
Vaccination co mbined w ith surgical operation
C57BL/6 mice were injected subcutaneousl y on the right flank with 5×10^4 TC-1 tumor cells. One month later when the volume of tumor reached 1000mm 3 (day 0), mice were anesthetized and full resection was executed by excising the tumor using standard blunt dissection. Sterile silk sutures were used to close wounds.
Accompanied b y wound closure, mice were vaccinated subcutaneousl y with micelle vaccine or NS for three times at 7 days interval. […]

[1] = In vivo imaging (IVIS) of lymphatic trafficking; design: species or system C57BL/6 mice; conditions: subcutaneous at tail base, 15 μmol FITC, 0 to 168 h
Description: C57BL/6 mice were subcutaneously injected with 15 μmol (FITC) of different FITC-labeled formulations (FITC, F-L, F-M) at tail base. The diffusion from injection sites was detected using an in vivo imaging system (IVIS) (Caliper life Sciences, Hopkinton, MA, USA). Spectrum unmixing technique was applied to reducing the effect of native tissue auto-fluorescence, separating detecting fluorescence and analyzing fluorescence diffusion. For imaging on inguinal and axillary LNs, LNs were excised and imaged at indicated time points. An image set (Ex: 500, Em: 540, f4, bin 8, 2 s) was collected. Living Image software Version 4.4 (Caliper Life Sciences, Waltham, MA, USA) was used to acquire and quantify the fluorescence imaging data sets.

DC2.4 cells = assay: Confocal imaging of intracellular localisation of RhB-labeled peptides; type: cell-based, mouse (C57BL/6); conditions: 20 μM RhB-labeled peptide, 37 °C, 30 min (legend; text says 2 h), LysoTracker Green or EGFP-Rab5, confocal, three independent experiments
Method: DC2.4 cells or EGFP-Rab5 expressing DC2.4 cells were seeded in 35 mm glass-bottom plates. After overnight culture, different formulations of indicated Rhodamine-labeled peptides (20 μM) were added and incubated at 37 °C for 30 min or 2 h. Then, 100 nM Lyso-Tracker Green or ER-Tracker Green (Life Technologies, Grand Island, NY, USA) was added and incubated for 5 or 20 min, respectively. The processes of PEG-PE inserting into cell membranes, peptide internalization and the co-localization of peptides with early endosome (Rab5), lysosome or ER were imaged using a confocal microscope LSM-700 (ZEISS, Germany).
TC-1, a tumor cell line transformed from C57BL/6 primar y mouse lung cells, was kindly provided b y Dr. Xuemei Xu (Institute of Basic Medical Sciences Chinese Academ y of Medical Sciences & School of Basic Medicine, Peking Union Medical College, Beijing, China). DC2.4, an immortalized DC cell line derived from C57BL/6 mice, was kindl y provided by Dr. Li Tang (Ke y Laborator y of Protein Engineering, Academ y of Military Medical Sciences, Beijing, China). RAW 264.7, a macrophage like cell line derived from BALB/c mice, was purchased from the Type Culture Collection of the Chinese Academ y of Sciences (Shanghai, China). MC38 is a murine colon adenocarcinoma cell line. MC38- OVA was sorted and subcloned after MC38 cells were stable transduced with retrovirus expressing mouse […]–O T I.
B16-F10 murine melanoma cell line was originally obtained from ATCC, catalog no.
CRL-6475. All cells were cultured in complete RPMI1640 medium according to […]
Preparation of PE G-PE micellized antigenic peptides
Briefl y, peptides (HPV16 E7 43-62 , O VA 250-264 , sCT) or Rhodamine labeled peptides (RhB-peptide) were dissolved in methanol, respectivel y. Then the three peptides were respectively mixed with corresponding amount PEG 2000 -PE or FITC labeled PEG 2000 -PE(FITC-PP) which was dissolved in chloroform in a 1/10 molar ratio of peptide/PEG-PE. Then the peptide containing micelle were prepared as described in […]

TLR4 [2] = target: T1, TLR4 (Mus musculus, UniProt Q9JHF9+Q9QUK6); assay: MPLA activity assay (TNF-α ELISA); type: cell-based, mouse (RAW264.7 cells); conditions: RAW264.7 cells, 2 h, mean±s.d. n=4
T1 construct: endogenous in cells; host or cells: RAW264.7 (mouse macrophage-like cell line)
T1 sequence (Q9JHF9 19-160): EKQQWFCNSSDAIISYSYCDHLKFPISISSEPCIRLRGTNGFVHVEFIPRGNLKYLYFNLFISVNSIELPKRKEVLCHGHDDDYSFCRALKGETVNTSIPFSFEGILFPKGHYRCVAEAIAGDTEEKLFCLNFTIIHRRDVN
T1 sequence (Q9QUK6 26-835): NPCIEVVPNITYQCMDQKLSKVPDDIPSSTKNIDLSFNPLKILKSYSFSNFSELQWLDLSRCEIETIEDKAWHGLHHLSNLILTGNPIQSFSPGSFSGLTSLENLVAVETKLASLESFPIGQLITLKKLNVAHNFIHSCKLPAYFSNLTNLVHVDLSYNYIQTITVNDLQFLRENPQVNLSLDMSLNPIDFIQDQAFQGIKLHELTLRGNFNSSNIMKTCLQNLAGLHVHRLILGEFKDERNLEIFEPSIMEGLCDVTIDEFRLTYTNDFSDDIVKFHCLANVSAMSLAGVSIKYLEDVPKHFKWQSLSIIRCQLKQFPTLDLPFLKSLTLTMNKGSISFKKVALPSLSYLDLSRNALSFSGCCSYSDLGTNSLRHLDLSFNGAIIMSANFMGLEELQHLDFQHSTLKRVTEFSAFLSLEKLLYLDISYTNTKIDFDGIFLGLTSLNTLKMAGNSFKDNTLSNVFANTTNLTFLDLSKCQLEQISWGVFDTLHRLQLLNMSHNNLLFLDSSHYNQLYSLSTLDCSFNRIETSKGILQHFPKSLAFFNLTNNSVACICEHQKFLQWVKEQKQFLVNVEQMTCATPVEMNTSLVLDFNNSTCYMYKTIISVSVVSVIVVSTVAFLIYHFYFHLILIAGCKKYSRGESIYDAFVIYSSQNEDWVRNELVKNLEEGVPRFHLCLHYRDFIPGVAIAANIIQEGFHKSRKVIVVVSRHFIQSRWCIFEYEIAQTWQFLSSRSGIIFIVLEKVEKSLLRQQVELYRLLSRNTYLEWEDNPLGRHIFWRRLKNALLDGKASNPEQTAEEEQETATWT
Method: (§1) 0.5 mg/ml with deionized water. Particle sizes were shown as intensity-w eight ed diameters. The values were repo rted as the mean ± standard deviation (SD) based on more than three individual measurements performed in triplicate.
(§2) […] RAW264.7 cells were seeded in 24-well plates overnight. Then, the cells were treated with 10, 100, 1000ng/ml MPLA, M-MPLA, Lipo/MPLA, PLA/MPLA, or PEG 2000 -DPG (1,2-dipalmitate-sn-gl yc e r o -3- O-[(polyethylene glycol)-2000]) micellized MPLA (DP-M-MP LA), PEG 2000 -L-DPG (1,2-dipalmitate-sn-gl yc e r o -3-(6-amido-2-aminohexanoyl ox y)-N-[(polyethylene glycol)-2000]) micellized MPLA (N-M-MPLA), respectively for 2 h prior to harvesting the supernatant. TLR4 activation was measured by the cumulative production of TNF-α using the mouse TNF-α ELISA kit (eBios cience, San Diego, CA, USA).
(§3) M-MPL A activity assay in serum f ree mediu m or under LBP-blocking condition RAW264.7 cells were seeded and cultured overnight. Then the cells were either treated (1) with s erum-free medium (S FM) or (2) with LBP-blocking pepti de. (1): The cells were washed with SFM three times before experiment, then treated with 100ng/ml MP LA, M-MP LA, or LPS in the p resen ce o r abs ence of serum respectivel y; (2):The cells were treated with or without LBPK95A (LBPK95A sequence:
(§4) added and incubated for 2h prior to harvesting the supernatant. TLR4 activation was […]

TLR4 [3] = target: T1, TLR4; assay: M-MPLA activity assay in serum free medium or under LBP-blocking condition; type: cell-based, mouse (RAW264.7 cells); conditions: RAW264.7 cells, 2 h, serum-free medium or 100 μg/ml LBPK95A, ELISA
Method: as §1, §2, §3, §4

[4] = cited from earlier work
Description: Both MPLA and LPS have very low critical micelle concentration to tend to form the micelle at 10^−9 mol concentration. Only their monomers can bind to the TLR4/MD-2 heterodimers, and after binding, two TLR4/MD-2 heterodimers form the TLR4/MD-2 heterotetramers for signaling transduction. As a chaperon, LBP in serum can induce disassembly of MPLA and LPS, and then transfer them with CD14 to their receptors (Supplementary Figure S3A; [36]). […] However, as a detoxic form of LPS, the adjuvant activity is also attenuated. […] One reason of PEG-PE micelles accounting for these may be its monomerization of MPLA. MPLA, as well as LPS, has very low critical micelle concentration (~10^−9 M), thus are usually present as aggregates [[32], ...

TLR4/MD-2 = target: T2, TLR4/MD-2 (Mus musculus, UniProt Q9JHF9+Q9QUK6); assay: TLR4/MD-2 heterotetramer formation detection (MTS510 staining); type: cell-based, mouse (RAW264.7 cells); conditions: RAW264.7 cells, 100 ng/ml, 15 min, 37 °C, flow cytometry
T2 construct: endogenous in cells; host or cells: RAW264.7 (mouse macrophage-like cell line)
T2 sequence (Q9JHF9 19-160): as the sequence (Q9JHF9 19-160) above
T2 sequence (Q9QUK6 26-835): as the sequence (Q9QUK6 26-835) above
Method: measured as describ ed ab ove.
TLR4/MD-2 heterotetramer forma tion detecti on RAW264.7 cells were stimulated with 100ng/ml MPLA, M+MPLA, M -MPLA, or LPS for 15min at 37℃. Then the treated cells were put on ice and washed with PBS.
After blocking with anti- FcγR mAb (2.4G2), the cells were incubated with one of the following antibodies: MTS510 PE, Rat IgG2a K isotype control PE. Finally, the cells were anal yz ed b y flow cyt ometr y (Calibur, BD Bioscience).
Bone marrow dendritic cells (BMDC) g enera tion
BMDCs are generated as described previously 2. Briefly, bone marrow (BM) cells were collected from tibias and femurs of female C57BL/6 mice. At da y 0, 2×10^6 BM cells were cultured in 100mm plate with 10ml complete RPMI 1640 medium containing 200 U/ml rmGM-CSF (PeproTech, Rocky Hill, NJ). At day 3, another 10 ml RPMI 1640 medium containing 200U/ml rmGM-CSF were added. At day 6, the immature BMDCs were collected and read y to us e.
BMDCs or splenocytes from C57BL/6 mice were seeded in 96-well plates and cultured in the presence of 100 ng/ml different MPLA formulations (MPLA, M+MP LA, M- MPLA), or 10 μg empt y PEG -PE micelle. For RNA detection, BMDCs were collected 1h after stimulation. For protein detection, the supernatants were […]

[5] = Circular dichroism (CD) spectroscopy of secondary structure; type: physicochemical; conditions: free peptide or PEG-PE micellized peptide

N.N.[Cl][Pt][Cl] [cisplatin]
Mice remaining tumor-free at 3 months after treatment (TC-1 cells): none

Fluorescein isothiocyanate [FITC]
Diffusion from the injection site [1]: mostly stayed and largely retained around the injection sites even 7 days post injection

GQAEPDRAHYNIVTFCCKCD [E7, HPV16 E7_43-62 antigenic peptide, RhB-labeled for imaging]
Intracellular location of RhB-labeled peptide relative to lysosomes / endosomes (DC2.4 cells): contained within lysosomes

Monophosphoryl lipid A [MPLA]
MPLA concentration generating a comparable level of TNF-α (TLR4 [2]): 1 000 ng ml^−1
TNF-α secretion in serum-free medium (without LBP) or with LBP-blocking peptide (TLR4 [3]): could not efficiently stimulate macrophage to secret TNF-α
Critical micelle concentration [4]: ~ 10^−9 M
Critical micelle concentration (concentration at which micelles tend to form) [4]: 10^−9 mol

SGLEQLESIINFEKL [OVA peptide, OVA250-264 antigenic peptide]
Intracellular location of RhB-labeled peptide relative to lysosomes / endosomes (DC2.4 cells): largely outside lysosomes

lipopolysaccharide [LPS]
MTS510 mAb reactive surface TLR4/MD-2 complex (TLR4/MD-2): dramatically downregulated MTS510 mAb reactive surface TLR4/MD-2 complex
TNF-α secretion in serum-free medium (without LBP) or with LBP-blocking peptide (TLR4 [3]): could not efficiently stimulate macrophage to secret TNF-α
Critical micelle concentration [4]: ~ 10^−9 M
Critical micelle concentration (concentration at which micelles tend to form) [4]: 10^−9 mol

salmon calcitonin [sCT]
Secondary structure by CD spectroscopy [5]: non-α-helical peptides
Intracellular location of RhB-labeled peptide relative to lysosomes / endosomes (DC2.4 cells): contained within lysosomes
